{
  "source": "patent US20070281040A1",
  "about": "“COMBINATION THERAPY OF HEDGEHOG INHIBITORS, RADIATION AND CHEMOTHERAPEUTIC AGENTS” (THE UNIVERSITY OF CHICAGO, priority 2004, published 2007)",
  "key": {"[1]": {"system": "hedgehog expressing tumor cells", "assay_type": "cell-based"}, "[2]": {"system": "Mia PaCa-2 cells", "assay": "Colony formation assay", "experimental": "Mia PaCa-2 cells were grown in DMEM high glucose, and supplemented with L-glutamine, 10% fetal bovine serum (FBS), and penicillin/streptomycin 1%.\n250 to 1000 cells were plated in 60 mm dishes. Cells were incubated overnight. At twenty four hours cells were irradiated (3.5 Gy). Cyclopamine 2-10 μMol (Toronto Research Chemicals, TRC, supplier, Canada) was added to culture media, or combination of both. For chemotherapeutic agents, the drug was added to culture media at appropriate concentrations 24 hours after plating. Cultures were incubated for 10-14 days. […] Plating efficiency was normalized compared to control."}, "[3]": {"system": "BxPC-3 cells", "assay": "Colony formation assay", "assay_type": "cell-based, human", "experimental": "(§1) Cells were incubated overnight. […] Cultures were incubated for 10-14 days. […] Plating efficiency was normalized compared to control."}, "[4]": {"system": "HCT 116 cells", "assay": "Colony formation assay", "assay_type": "cell-based, human", "experimental": "as §1"}, "[5]": {"system": "Mia PcCa-2 cells", "assay": "Annexin V-PE apoptosis assay", "assay_type": "cell-based, human", "conditions": "24 hours", "experimental": "(§2) Cyclopamine 4 μmol was added to culture media of exponentially growing cells with or without chemotherapeutic agents and irradiated at 12 hours. Cells were trypsinized after 24, 48 or 72 hours. Annexin levels were measured (Annexin V: PE Apoptosis Detection Kit, BD Biosciences Pharningen™, San Jose, Calif.) for 0.5×10^6 freshly detached cells. The presence of membrane permeabilization was monitored by 7-AAD (7-Amino-actinomycinD) staining per manufacturer's protocol. Cells were subsequently analyzed by FACScan (BD FACSCanto™, BD Biosciences Immunocytometry Systems™, San Jose, Calif. with the use of CellQuest software (BD CellQuest™ Pro, BD Biosciences Immunocytometry Systems™, San Jose, Calif. The percentage of apoptotic cells was calculated by scoring for cells positive for either annexin alone (early apoptotic) or both annexin and 7-AAD (late apoptotic). All experiments were done in triplicate."}, "[6]": {"system": "hedgehog expressing tumor cells", "assay_type": "cell-based", "experimental": "as §2", "remark": "listed apart in the source"}, "[7]": {"system": "prostate cancer xenografts", "conditions": "high dose treatment; cited from earlier work"}, "[8]": {"system": "murine tumor allografts of medulloblastoma", "conditions": "mouse, in vivo; cited from earlier work"}, "[9]": {"system": "pancreatic cancer cell lines with over-activation of Hh pathway signaling", "conditions": "cited from earlier work"}, "[10]": {"conditions": "cyclopamine 4 μM and irradiation 3.5 Gy"}},
  "note": "Read-outs that look alike come from different tables or passages of the source.",
  "data": [
    {"smiles": "CC1=C2C(=O)C3C(CC=C4CC(O)CCC43C)C2CCC12OC1CC(C)CNC1C2C", "note": "(centres unmarked) [jervine]", "values": [
      {"measurement": "apoptosis of combination with radiation vs radiation alone (in words)", "setting": "[1]; jervine 4 μMol and radiation 3.5 Gy", "result": "differ little from radiation alone"},
      {"measurement": "apoptosis (Annexin V assay, in words)", "setting": "[1]; jervine 4 μMol, 24, 48 or 72 hours", "result": "induces apoptosis in an increasing percentage of cells in a time-dependent manner"},
      {"measurement": "cytotoxic effect when combined with irradiation (in words)", "setting": "[1]; jervine, hedgehog expressing tumor cells", "result": "additive cytotoxic effect"}
    ]},
    {"smiles": "N.N.[Cl][Pt][Cl]", "note": "[Cisplatin]", "values": [
      {"measurement": "survival (colony formation)", "setting": "[2]; cisplatin 0.8 μM alone", "result": 35, "unit": "%"}
    ]},
    {"smiles": "Nc1ccn([C@@H]2O[C@H](CO)[C@@H](O)C2(F)F)c(=O)n1", "note": "[Gemcitabine]", "values": [
      {"measurement": "survival (colony formation)", "setting": "[2]; gemcitabine 7.3 nM alone", "result": 35, "unit": "%"}
    ]},
    {"smiles": "CC1=C2C[C@H]3[C@@H](CC=C4C[C@@H](O)CC[C@@]43C)[C@@H]2CC[C@]12O[C@@H]1C[C@H](C)CN[C@H]1[C@H]2C", "note": "[cyclopamine]", "values": [
      {"measurement": "survival (colony formation)", "setting": "[2]; cyclopamine 4 μM alone", "result": 29, "unit": "%"},
      {"measurement": "survival (colony formation)", "setting": "[2]; [10]", "result": 4, "unit": "%"},
      {"measurement": "survival (colony formation)", "setting": "[2]; cyclopamine 10 μM", "result": 7, "unit": "%"},
      {"measurement": "cytotoxic effect when combined with irradiation (in words)", "setting": "[2]; hedgehog expressing tumor cells", "result": "additive cytotoxic effect"},
      {"measurement": "survival (colony formation)", "setting": "[3]; [10]", "result": 7, "unit": "%"},
      {"measurement": "survival (colony formation)", "setting": "[3]; cyclopamine 10 μM", "result": 11, "unit": "%"},
      {"measurement": "survival (colony formation)", "setting": "[3]; cyclopamine 4 μMol alone", "result": 33, "unit": "%"},
      {"measurement": "effect on survival following irradiation (in words)", "setting": "[4]; cells that do not express the hedgehog pathway", "result": "did not have a significant effect on survival"},
      {"measurement": "survival (colony formation)", "setting": "[4]; [10]", "result": 35, "unit": "%"},
      {"measurement": "survival (colony formation)", "setting": "[4]; cyclopamine 10 μM", "result": 74, "unit": "%"},
      {"measurement": "survival (colony formation)", "setting": "[4]; cyclopamine 4 μMol alone", "result": 92, "unit": "%"},
      {"measurement": "apoptosis (AnnexinV staining)", "setting": "[5]; cyclopamine 4 μMol", "result": 18.2, "unit": "%"},
      {"measurement": "apoptosis of combination with radiation vs radiation alone (in words)", "setting": "[6]; cyclopamine 4 μMol and radiation 3.5 Gy", "result": "not significantly different from radiation alone"},
      {"measurement": "apoptotic cells (Annexin assay)", "setting": "[6]; cyclopamine 4 μMol and radiation 3.5 Gy, 24 hours", "result": 32.11, "unit": "%"},
      {"measurement": "apoptotic cells (Annexin assay)", "setting": "[6]; cyclopamine 4 μMol and radiation 3.5 Gy, 48 hours", "result": 28.5, "unit": "%"},
      {"measurement": "apoptotic cells (Annexin assay)", "setting": "[6]; cyclopamine 4 μMol and radiation 3.5 Gy, 72 hours", "result": 32.3, "unit": "%"},
      {"measurement": "apoptotic cells (Annexin assay)", "setting": "[6]; cyclopamine 4 μMol, 24 hours", "result": 18.15, "unit": "%"},
      {"measurement": "apoptotic cells (Annexin assay)", "setting": "[6]; cyclopamine 4 μMol, 48 hours", "result": 29.8, "unit": "%"},
      {"measurement": "apoptotic cells (Annexin assay)", "setting": "[6]; cyclopamine 4 μMol, 72 hours", "result": 32.9, "unit": "%"},
      {"measurement": "tumor response (in words)", "setting": "[7]", "result": "complete regression"},
      {"measurement": "tumor response (in words)", "setting": "[8]", "result": "anti-tumor effects"},
      {"measurement": "apoptosis (in words)", "setting": "[9]", "result": "induced apoptosis"}
    ]},
    {"smiles": "CC(=O)O[C@H]1C(=O)[C@@]2(C)[C@H]([C@H](OC(=O)c3ccccc3)[C@]3(O)C[C@H](OC(=O)[C@H](O)[C@@H](NC(=O)c4ccccc4)c4ccccc4)C(C)=C1C3(C)C)[C@]1(OC(C)=O)CO[C@@H]1C[C@@H]2O", "note": "[taxol, Paclitaxel]", "values": [
      {"measurement": "survival (colony formation)", "setting": "[2]; taxol 3.5 nM alone", "result": 91, "unit": "%"},
      {"measurement": "apoptosis (AnnexinV staining)", "setting": "[5]; taxol 1.7 nM", "result": 64.9, "unit": "%"}
    ]}
  ]
}
